As usually defined, the EC50 is the concentration that produces a half-maximal response.

SMILES strings stand for the structures. Bounds are passed on as bounds.

In the first assay the test system is Hennes-20 cells. Nature of the assay: Hennes-20 oncology screen (low vs high plating density, alamar Blue). Type of assay: cell-based. Conditions: 72 h. The protocol:
All compounds mentioned as active were tested in Hennes. Select hits from the Hennes screen were sent for additional anti-cancer testing.
To screen compounds for oncology activity Hennes-20 cells were plated at low (500 cells/well) versus high (15,000 cells/well) densities and treated with DMSO (vehicle) or dose-titration of compounds. The rationale for this screen is that an intrinsically toxic compound should kill cells regardless of density, including in Hennes-20 cells. However, a compound that selectively triggers the arrest of proliferation will inhibit cell growth when plated at a low density will appear cytotoxic due to inhibition of cell growth when plated at a low density but will appear non-toxic to cells plated at a high density where the cells are approaching confluence and the readout detected by a cell viability assay is already close to the maximum.
To conduct the Hennes-20 screen, two 96 well plates were seeded with Hennes 20 cells in parallel where one was plated at a density of 500 cells/well and the other was plated at a density of 15,000 cells/well. 90 uL of minimum essential media was added to each well and plates were placed in a 37 degrees Celsius incubator for 24 hours. The next day, 10 ul of media containing dilutions of compound in DMSO were added to each plate. Six wells on each plate received 10 ul of media containing only DMSO. Each well was gently mixed 5 times with a 100 ul pipette. Plates were incubated at 37 degrees Celsius for 72 hours then 10 uL of alamar Blue was added to each well. Wells were mixed 5 times then incubated at 37 degrees Celsius for […]. Plates were then read at 530/590.
The rationale for the screen is as follows: Hennes-20 cells lack endogenous apoptosis. Cells plated at low density will proliferate and approach confluence in 72 hrs. A drug that arrests proliferation may have its proliferation blocking effect masked by the triggering of endogenous apoptosis. However, in the Hennes line, lacking endogenous apoptosis, such an arrest is manifest as a dose-dependent maintenance at low cell density. Since the high-density cells are plated close to confluence, the difference between Alamar Blue cell survival readings after 72 hrs reflects the ability of the drug to block proliferation in the low density-plated cells. In the high density-plated cells any diminution of Alamar Blue readout vs vehicle control is due to intrinsic toxicity, not proliferation arrest, since cells were already at confluence. Thus, a compound that appears toxic (low Alamar Blue readings after 72 hrs) on the low-density plate, but which appears non-toxic (high Alamar Blue readings after 72 hrs) on the high-density plate, must be arresting proliferation, since intrinsic compound toxicity should be observed at both low and high cell densities, not selectively on the low-density plate.
Turning to `CCCCNc1ncnc2cc(N3CCN(c4cc(NCCC(C)C)c5cncnc5c4)C(C)C3)ccc12` (stereo not drawn) [Compound 67], the EC50 came to 0.5 µM.

Still in this assay, the particulars now being: 72 h, Hennes-20 cells, 72 hours compound incubation, alamar Blue; read-out: EC50.
With `CC(C)CCNc1ncnc2cc(N3CCN(c4ccc5c(NCC(C)C)ncnc5c4)CC3)ccc12` [Compound 8], the EC50 was < 0.5 µM.
As for `CCCCNc1ncnc2cc(N3CCN(c4ccc5c(NCCC(C)C)ncnc5c4)CC3)ccc12` [Compound 22], the EC50 is < 0.5 µM.
The same measure, in the same setting: as for `CC(C)CCNc1ncnc2cc(N3CCN(c4ccc5c(NCC(C)(C)C)ncnc5c4)CC3)ccc12` [Compound 24], the figure is < 0.5 µM; as for `CC(C)CCNc1ncnc2cc(N3CCN(c4ccc5c(NC(C)C)ncnc5c4)CC3)ccc12` [Compound 29], < 0.5 µM; as for `CC(C)CCNc1ncnc2cc(N3CCN(c4ccc5c(NCCCN(C)C)ncnc5c4)CC3)ccc12` [Compound 31], < 12.5 µM.
The same measure, in the same setting: with `CCCCNc1ncnc2cc(N3CCN(c4ccc5c(NCCC(C)C)ncnc5c4)CC3C)ccc12` (stereo not drawn) [Compound 51] the figure was 0.5 µM; with `CCCCNc1ncnc2cc(N3CCN(c4ccc5c(NCCC(C)C)ncnc5c4)C(C)C3C)ccc12` (stereo not drawn) [Compound 52], 2.5 µM; with `CCCCNc1ncnc2cc(N3CCN(c4ccc5c(NCCCC)ncnc5c4)C(C)C3)ccc12` (stereo not drawn) [Compound 53], 0.5 µM.
As to `CC(C)CCNc1ncnc2cc(N3CC(C)N(c4ccc5c(NCCC(C)C)ncnc5c4)CC3C)ccc12` (stereo not drawn) [Compound 54], the EC50 stood at 2.5 µM.
Same read-out and setting: with `CC(C)CCNc1ncnc2cc(N3CCN(c4ccc5c(NCCC(C)C)ncnc5c4)C(C)C3C)ccc12` (stereo not drawn) [Compound 55] the figure was 0.5 µM; with `CCCCNc1ncnc2cc(N3CCN(c4ccc5c(NCCc6ccccc6)ncnc5c4)CC3)ccc12` [Compound 56], 12.5 µM; with `CCCCNc1ncnc2cc(N3CCN(c4ccc5c(NCCC6CCNCC6)ncnc5c4)CC3)ccc12` [Compound 57], > 12.5 µM.
As to `CC(C)(C)CNc1ncnc2cc(N3CCN(c4ccc5c(NCCc6ccccc6)ncnc5c4)CC3)ccc12` [Compound 58], the EC50 came out at 12.5 µM.
On the same count and under the same terms, as for `CC(C)(C)CNc1ncnc2cc(N3CCN(c4ccc5c(NCCC6CCNCC6)ncnc5c4)CC3)ccc12` [Compound 59], the figure is > 12.5 µM; as for `CC(C)CCN(C)c1ncnc2cc(N3CCN(c4ccc5c(NCCc6ccccc6)ncnc5c4)CC3)ccc12` [Compound 60], 2.5 µM.
The same measure, in the same setting: with `CC(C)CCN(C)c1ncnc2cc(N3CCN(c4ccc5c(NCCc6ccncc6)ncnc5c4)CC3)ccc12` [Compound 61] the figure was 2.5 µM.
As to `CC(C)CCN(C)c1ncnc2cc(N3CCN(c4ccc5c(NCCC6CCNCC6)ncnc5c4)CC3)ccc12` [Compound 62], the EC50 is > 12.5 µM.
On the same count and under the same terms, as for `CC(C)CNc1ncnc2cc(N3CCN(c4ccc5c(NCCC6CCNCC6)ncnc5c4)CC3)ccc12` [Compound 63], the figure is > 12.5 µM.
Same read-out and setting: with `CC(C)CNc1ncnc2cc(N3CCN(c4ccc5c(NCCc6ccccc6)ncnc5c4)CC3)ccc12` [Compound 64] the figure was 2.5 µM; with `CC(C)CNc1ncnc2cc(N3CCN(c4ccc5c(NCCc6ccncc6)ncnc5c4)CC3)ccc12` [Compound 65], 2.5 µM; with `CC(C)CCNc1cc(N2CCN(c3ccc4c(NCC(C)(C)C)ncnc4c3)CC2C)cc2ncncc12` (stereo not drawn) [Compound 66], 2.5 µM.
Turning to `CC(C)(C)CNc1ncnc2cc(N3CCN(c4ccc5c(NCCc6ccccn6)ncnc5c4)CC3)ccc12` [Compound 68], the EC50 was determined as 0.5 µM.
On the same count and under the same terms, with `CCCCNc1ncnc2cc(N3CCN(c4ccc5c(NCCc6ccccn6)ncnc5c4)CC3)ccc12` [Compound 69] the figure was 0.5 µM.
On to `CCCCNc1ncnc2cc(N3CCN(c4ccc5c(N6CCC(C)(C)CC6)ncnc5c4)CC3)ccc12` [Compound 70], for which the EC50 was determined as 0.5 µM.
Still for that read-out and setting: with `CCCCNc1ncnc2cc(N3CCN(c4ccc5c(NCCN6CCN(C)CC6)ncnc5c4)CC3)ccc12` [Compound 71] the figure was > 2.5 µM.
On to `CCCCNc1ncnc2cc(N3CCN(c4ccc5c(NCCc6cccnc6)ncnc5c4)CC3)ccc12` [Compound 72], for which the EC50 came out at 2.5 µM.
On the same count and under the same terms, with `CCCCNc1ncnc2cc(N3CCN(c4ccc5c(NCCc6ccncc6)ncnc5c4)CC3)ccc12` [Compound 73] the figure was 2.5 µM; with `CC(C)(C)CNc1ncnc2cc(N3CCN(c4ccc5c(N6CCC(C)(C)CC6)ncnc5c4)CC3)ccc12` [Compound 74], 0.5 µM; with `CN1CCN(CCNc2ncnc3cc(N4CCN(c5ccc6c(NCC(C)(C)C)ncnc6c5)CC4)ccc23)CC1` [Compound 75], > 2.5 µM.
On the same count and under the same terms, with `CC(C)(C)CNc1ncnc2cc(N3CCN(c4ccc5c(NCCc6cccnc6)ncnc5c4)CC3)ccc12` [Compound 76] the figure was 2.5 µM.
`CC(C)(C)CNc1ncnc2cc(N3CCN(c4ccc5c(NCCc6ccncc6)ncnc5c4)CC3)ccc12` [Compound 77]: the EC50 was < 12.5 µM.
Same read-out and setting: with `CC(C)CCNc1ncnc2cc(N3CCN(c4ccc5c(NCCC6CCCC6)ncnc5c4)CC3)ccc12` [Compound 80] the figure was 0.5 µM; with `CC(C)CCNc1ncnc2cc(N3CCN(c4ccc5c(NCCc6nccs6)ncnc5c4)CC3)ccc12` [Compound 81], 0.5 µM; with `CC(C)CCNc1ncnc2cc(N3CCN(c4ccc5c(NCCN6CCN(C)CC6)ncnc5c4)CC3)ccc12` [Compound 82], < 12.5 µM.
On the same count and under the same terms, with `CC(C)CCNc1ncnc2cc(N3CCN(c4ccc5c(NCCc6cccnc6)ncnc5c4)CC3)ccc12` [Compound 83] the figure was < 2.5 µM.
On the same count and under the same terms, with `CC(C)CCNc1ncnc2cc(N3CCN(c4ccc5c(NCCc6ccccn6)ncnc5c4)CC3)ccc12` [Compound 84] the figure was 0.5 µM; with `CC(C)CCNc1ncnc2cc(N3CCN(c4ccc5c(NCCc6ccncc6)ncnc5c4)CC3)ccc12` [Compound 85], < 12.5 µM; with `CCN(CCN(CC)c1ccc2c(NCC(C)(C)C)ncnc2c1)c1ccc2c(NCCC(C)C)ncnc2c1` [Compound 86], < 2.5 µM.
As for `CCCCNc1ncnc2cc(N(CC)CCN(CC)c3ccc4c(NCCC(C)C)ncnc4c3)ccc12` [Compound 87], the EC50 came out at 2.5 µM.
Same read-out and setting: as for `CCN(CCN(CC)c1ccc2c(NCCC(C)C)ncnc2c1)c1ccc2c(NCCC(C)C)ncnc2c1` [Compound 88], the figure is < 12.5 µM.
Take `CCCCNc1ncnc2cc(N(C)CCN(C)c3ccc4c(NCCCC)ncnc4c3)ccc12` [Compound 89]: the EC50 was determined as 0.5 µM.
The same measure, in the same setting: with `CC(C)CCNc1ncnc2cc(N(C)CCN(C)c3ccc4c(NCC(C)(C)C)ncnc4c3)ccc12` [Compound 90] the figure was 2.5 µM; with `CCCCNc1ncnc2cc(N(C)CCN(C)c3ccc4c(NCCC(C)C)ncnc4c3)ccc12` [Compound 91], 2.5 µM.
Still for that read-out and setting: with `CCCCNc1ncnc2cc(N(CC)CCN(C)c3ccc4c(NCCC(C)C)ncnc4c3)ccc12` [Compound 92] the figure was 2.5 µM; with `CCCCNc1ncnc2cc(N(C)CCN(CC)c3ccc4c(NCCCC)ncnc4c3)ccc12` [Compound 93], < 2.5 µM.
As for `CCN(CCN(C)c1ccc2c(NCC(C)(C)C)ncnc2c1)c1ccc2c(NCCC(C)C)ncnc2c1` [Compound 94], the EC50 was < 2.5 µM.
Take `CCCCNc1ncnc2cc(N(C)CCN(CC)c3ccc4c(NCCC(C)C)ncnc4c3)ccc12` [Compound 95]: the 50% effective concentration (EC50) is < 2.5 µM.
The same measure, in the same setting: with `CCN(CCN(C)c1ccc2c(NCCC(C)C)ncnc2c1)c1ccc2c(NCCC(C)C)ncnc2c1` [Compound 96] the figure was < 2.5 µM.
Consider `CCCCNc1ncnc2cc(N(C)CCCN(C)c3ccc4c(NCCC(C)C)ncnc4c3)ccc12` [Compound 98], for which the EC50 is < 2.5 µM.
The same measure, in the same setting: with `CC(C)CCNc1ncnc2cc(N(C)CCCN(C)c3ccc4c(NCCC(C)C)ncnc4c3)ccc12` [Compound 99] the figure was < 12.5 µM.

Still in this assay, the particulars now being: Hennes-20 cells, 72 hours compound incubation, alamar Blue; read-out: EC50.
For `CC(C)CCNc1ncnc2cc(N3CCN(c4ccc5c(N(C)CC(C)C)ncnc5c4)CC3)ccc12` [Compound 7], the EC50 is < 0.5 µM.
Same read-out and setting: with `CC(C)CCNc1ncnc2cc(N3CCN(c4ccc5c(N(C)CC(C)C)ncnc5c4)CC3)ccc12` [Compound 23] the figure was < 2.5 µM.

Another assay has as its system plasmodium. Description: Malaria screen (SYBR green fluorescence, plasmodium parasitemia culture). Format: cell-based. Conditions: 0.5% plasmodium parasitemia culture, 48 hours. As for the experimental part:
Compound was added to a 0.5% plasmodium parasitemia culture for 48 hours, then treated with SYBR green (a dye with marked fluorescence enhancement upon contact with plasmodium DNA) and the fluorescence was measured in drug treated versus untreated cells to determine inhibitory effects (Smilkstein, et al., “Simple and inexpensive fluorescence-based technique for high-throughput antimalarial drug screening,” Antimicrob Agents Chemother, 2004 May; 48(5):1803-6. doi: 10.1128/AAC.48.5.1803-1806.2004. PMID: 15105138: PMCID: PMC400546).
In turn, `COc1ccc(CNc2ncnc3cc(N4CCN(c5ccc6c(NCc7ccc(OC)cc7)ncnc6c5)CC4)ccc23)cc1` [Compound 20] gave an EC50 of 0.028 µM.

These data come from US20240300905A1, “Quinazoline Compounds and Uses” (Prosetta Biosciences, Inc., priority 2023, published 2024).
